Patent US6703387B2, “Inhibitors of HPV E1 helicase enzyme” (Hoffmann-La Roche Inc., priority 2000, dated 2004)
pIC50: −log10 of the molar value. Where a name gives a salt, the structure may show the parent alone.

The molecules below were run against T1, HPV(11) E1 helicase enzyme (MBP fusion protein), ATPase activity (Human papillomavirus 11, UniProt P04014) (assay: E1 ATPase activity assay ([γ33P]ATP hydrolysis, charcoal separation)). Conditions: 20 μM ATP, 1 hour at 37° C., pH 7.0, read-out: Activity (IC50, concentration of test compound which inhibits enzyme activity by 50%).
T1 construct: made in house; host or cells: SF9 insect cells, baculovirus expression system
T1 sequence (P04014 whole entry, the tested form may be a part): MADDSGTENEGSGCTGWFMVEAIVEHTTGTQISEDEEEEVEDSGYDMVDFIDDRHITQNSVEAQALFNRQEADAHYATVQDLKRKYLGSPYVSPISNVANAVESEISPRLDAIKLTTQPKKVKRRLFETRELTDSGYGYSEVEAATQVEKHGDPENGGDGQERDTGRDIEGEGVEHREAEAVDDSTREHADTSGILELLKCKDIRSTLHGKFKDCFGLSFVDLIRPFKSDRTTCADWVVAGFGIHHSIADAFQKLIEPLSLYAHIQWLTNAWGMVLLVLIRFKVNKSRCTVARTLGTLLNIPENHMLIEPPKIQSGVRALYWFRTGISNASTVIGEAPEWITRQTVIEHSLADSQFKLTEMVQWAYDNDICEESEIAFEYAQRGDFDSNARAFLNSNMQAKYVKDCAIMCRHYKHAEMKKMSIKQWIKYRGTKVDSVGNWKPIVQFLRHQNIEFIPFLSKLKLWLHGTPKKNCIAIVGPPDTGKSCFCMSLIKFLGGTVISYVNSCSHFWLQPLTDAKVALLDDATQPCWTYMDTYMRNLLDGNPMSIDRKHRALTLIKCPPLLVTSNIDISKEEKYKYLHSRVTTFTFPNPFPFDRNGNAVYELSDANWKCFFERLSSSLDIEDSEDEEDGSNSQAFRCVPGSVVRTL
Assay type: biochemical
Protocol: For assaying E1 ATPase activity the HPV E1 enzyme has been prepared and purified as follows:
The HPV(11) E1 used in this assay is expressed as a maltose binding protein (MBP) fusion protein from SF9 cells using a baculovirus expression system. Frozen pellets of these cells are thawed by adding the pellet directly into a buffer at 4 OC containing 50 mM Tris-HCl pH 7.5, 20 mM dithiothreitol (DTT), 1 mM EDTA, 600 mM NaCl, 20% glycerol and 3 “Complete” protease inhibitor tablets/50 ml (Boehringer Mannheim cat.no.1 697 498). The cell suspension is then sonicated for 3×10 seconds before centrifuging at 18000 rpm for 30 minutes to remove the cell debris. The clarified extract is then passed down a DE52 ion exchange column which is washed with a buffer containing 50 mM Tris-HCl pH 7.5, 2 mM DTT, 1 mM EDTA, 600 mM NaCl and 20% glycerol. The column flow through plus the first 10 mls of wash buffer are then passed down an amylose affinity column which binds MBP tagged proteins. This column is washed with 3 column bed volumes of the wash buffer before being eluted with wash buffer containing 10 mM maltose. The eluted protein peak containing purified HPV(11) E1 is then dialysed overnight against 2 L of buffer containing 20 mM Tris-HCl pH 7.5, 2 mM DTT, 20 mM NaCl and 20% glycerol. The dialyzed material is used in the assay.
E1 ATPase activity can be measured as follows:
The standard reaction contains 50 mM MOPs KOH pH 7.0, 500 μM MgCl2, 20 μM ATP, 50 mM NaCl, 40 μl of a suitably diluted enzyme extract and 10 μl of inhibitor in a final volume of 100 μl. The ATP contains 0.1 μCi [γ^33P]ATP per reaction. The enzyme diluent contains 50 mM MOPs KOH pH7.0 and 1 mg/ml BSA. The inhibitor is diluted to give a range of concentrations in neat DMSO. Reaction tubes are incubated for 1 hour at 37° C. (producing linear kinetics) after which the reaction is terminated by heat inactivation at 85° C. for 2 minutes. 500 μl 15% activated charcoal in PBS is then added to each reaction. The activated charcoal used is 100-400 mesh untreated powder (Sigma cat No C-5260); prior to use in the assay this is washed in PBS several times and allowed to settle out under gravity, any fine particles still in suspension being decanted off after each wash. The reactions are left on ice for 1 hour after which the charcoal is pelleted out by centrifugation at 14000 rpm for 10 minutes. The charcoal pellet contains unconverted [γ^33P]ATP, whilst any free inorganic ^33P, the reaction product, will remain in the supernatant. The amount of radioactivity present in 300 μl of supernatant is then measured by scintillation spectrophotometry.
The results can be calculated as follows:
The degree of inhibition at each inhibitor concentration is expressed as a percentage of the control reaction (100%) after subtracting a measured blank value, which represents the amount of free inorganic ^33P present in a reaction containing heat inactivated enzyme. An IC50 value (concentration of test compound which inhibits enzyme activity by 50%) is then calculated from a dose response curve of log10 inhibitor concentration against percentage of the control reaction.

| Structure (SMILES) | pIC50 |
| --- | --- |
| CN1CCN=C(/C=C/c2ccc(Cl)c(Cl)c2)c2cccnc21 [Example 29, (E)-5-(3,4-Dichlorostyryl)-2,3-dihydro-1-methyl-1H-pyrido[2,3-e][1,4]diazepine hydrochloride (1:3)] | 5.52 |
| CN1CCN=C(/C=C/c2ccccc2Sc2ccc(Cl)cc2)c2ccccc21 [Example 121, (E)-5-[2-(4-Chlorophenylthio)styryl]-2,3-dihydro-1-methyl-1H-1,4-benzodiazepine dihydrochloride] | 5.80 |
| CN1CCN=C(/C=C/c2ccc(C#N)c(SCc3ccc(Cl)cc3)n2)c2ccc(Br)cc21 [Example 44, (E)-6-[2-(8-Bromo-2,3-dihydro-1-methyl-1H-1,4-benzodiazepin-5-yl)vinyl]-2-(4-chlorobenzylthio)-3-pyridinecarbonitrile dihydrochloride] | 5.60 |
| FC(F)(F)c1cccc2c1NCCN=C2/C=C/c1ccc(Cl)c(Cl)c1 [Example 38, (E)-5-(3,4-Dichlorostyryl)-9-(trifluoromethyl)-2,3-dihydro-1H-1,4-benzodiazepine dihydrochloride] | 5.25 |
| Cc1cc(C)n(COc2cccc(/C=C/C3=NCCN(C)c4ccccc43)c2)n1 [Example 92, (E)-2,3-Dihydro-1-methyl-5-[3-[(3,5-dimethyl-1-pyrazolyl)methoxy]-styryl]-1H-1,4-benzodiazepine dihydrochloride] | 4.72 |
| COC(=O)c1ccc(CN2CCN=C(/C=C/c3ccc(Cl)c(Cl)c3)c3ccccc32)cc1 [Example 127, Methyl (E)4-[[5-(3,4-dichlorostyryl)-2,3-dihydro-1H-1,4-benzodiazepin-1-yl]methyl]benzoate dihydrochloride] | 5.66 |
| O=C(O)c1ccc(CN2CCN=C(/C=C/c3ccc(Cl)c(Cl)c3)c3ccccc32)cc1 [Example 132, (E)-4-[[5-(3,4-dichlorostyryl)-2,3-dihydro-1H-1,4-benzodiazepin-1-yl]methyl]benzoic acid dihydrochloride] | 5.36 |
| CCOC(=O)c1ncn2c1CN=C(/C=C/c1ccc(Cl)c(Cl)c1)c1ccccc1-2 [Example 139, Ethyl (E)-6-(3,4-dichlorostyryl)-4H-imidazo[1,5-a]benzodiazepine-3-carboxylate] | 4.70 |
| CC(C)N1CCN=C(/C=C/c2ccc(Cl)c(Cl)c2)c2ccccc21 [Example 123, (E)-5-(3,4-Dichlorostyryl)-2,3-dihydro-1-isopropyl-1H-1,4-benzodiazepine dihydrochloride] | 5.70 |
| O=C(O)CN1CCN=C(/C=C/c2ccc(Cl)c(Cl)c2)c2ccccc21 [Example 137, (E)-5-(3,4-Dichlorostyryl)-2,3-dihydro-1H-1,4-benzodiazepine-1-acetic acid] | 4.70 |
| CN1CCN=C(/C=C/c2cccc(Oc3ccccc3)c2)c2ccccc21 [Example 3, (E)-2,3-Dihydro-1-methyl-5-(3-phenoxystyryl)-1H-1,4-benzodiazepine dihydrochloride] | 5.62 |
| CN1CCN=C(/C=C/c2ccc(Cl)c(Cl)c2)c2cc(NS(C)(=O)=O)ccc21 [Example 162, (E)-N-[5-(3,4-Dichlorostyryl)-2,3-dihydro-1-methyl-1H-1,4-benzodiazepin-7-yl]methanesulfonamide] | 5.07 |
| O=C(c1ccccc1)N1CCN=C(/C=C/c2ccc(Cl)c(Cl)c2)c2ccccc21 [Example 125, (E)-1-Benzoyl-5-(3,4-dichlorostyryl)-2,3-dihydro-1H-1,4-benzodiazepine hydrochloride] | 5.25 |
| CN1CCN=C(/C=C/c2ccc(Cl)c(Cl)c2)c2ccc(-c3cccs3)cc21 [Example 164, (E)-5-(3,4-Dichlorostyryl)-2,3-dihydro-1-methyl-8-(2-thienyl)-1H-1,4-benzodiazepine hydrochloride] | 4.92 |
| CN1CCN=C(/C=C/c2cnccc2-c2cccc(Br)c2)c2ccccc21 [Example 6, (E)-5-[2-[4-(3-Bromophenyl)-3-pyridyl]vinyl]-2,3-dihydro-1-methyl-1H-1,4-benzo-diazepine dihydrochloride] | 5.38 |
| CN1CCN=C(/C=C/c2cnccc2-c2cccc(Br)c2)c2ccc(Br)cc21 [Example 42, (E)-8-Bromo-5-[2-[4-(3-bromophenyl)-3-pyridyl]vinyl]-2,3-dihydro-1-methyl-1H-1,4-benzodiazepine dihydrochloride] | 5.62 |
| O=C(O)c1cccc(CN2CCN=C(/C=C/c3ccc(Cl)c(Cl)c3)c3ccccc32)c1 [Example 133, (E)-3-[[5-(3,4-Dichlorostyryl)-2,3-dihydro-1H-14-benzodiazepin-1-yl]methyl]benzoic]acid hydrochloride] | 5.51 |
